Experimental data as given in ChEMBL document CHEMBL3396949, “Synthesis, biological evaluation and molecular docking study of novel piperidine and piperazine derivatives as multi-targeted agents to treat Alzheimer's disease” (Bioorg Med Chem, 2015).

Legend:
Cholinesterase = Cholinesterase (Equus caballus, UniProt P81908); assay: Inhibition of equine serum BChE using butyrylthiocholine iodide as substrate incubated for 5 mins by Ellman's method
[1] = Antioxidant activity assessed as trolox equivalent of AAPH radical scavenging activity at 1 to 10 uM preincubated for 15 mins followed by AAPH challenge measured every min for 80 mins by ORAC-FL assay
[2] = target: Amyloid-beta precursor protein (Homo sapiens) (UniProt P05067); assay: Ratio of curcumin to compound for self-mediated amyloid beta (1 to 42) (unknown origin) aggregation at 25 uM after 48 hrs by thioflavin T fluorescence assay relative to control
Sequence of Amyloid-beta precursor protein (Homo sapiens) (P05067 whole entry): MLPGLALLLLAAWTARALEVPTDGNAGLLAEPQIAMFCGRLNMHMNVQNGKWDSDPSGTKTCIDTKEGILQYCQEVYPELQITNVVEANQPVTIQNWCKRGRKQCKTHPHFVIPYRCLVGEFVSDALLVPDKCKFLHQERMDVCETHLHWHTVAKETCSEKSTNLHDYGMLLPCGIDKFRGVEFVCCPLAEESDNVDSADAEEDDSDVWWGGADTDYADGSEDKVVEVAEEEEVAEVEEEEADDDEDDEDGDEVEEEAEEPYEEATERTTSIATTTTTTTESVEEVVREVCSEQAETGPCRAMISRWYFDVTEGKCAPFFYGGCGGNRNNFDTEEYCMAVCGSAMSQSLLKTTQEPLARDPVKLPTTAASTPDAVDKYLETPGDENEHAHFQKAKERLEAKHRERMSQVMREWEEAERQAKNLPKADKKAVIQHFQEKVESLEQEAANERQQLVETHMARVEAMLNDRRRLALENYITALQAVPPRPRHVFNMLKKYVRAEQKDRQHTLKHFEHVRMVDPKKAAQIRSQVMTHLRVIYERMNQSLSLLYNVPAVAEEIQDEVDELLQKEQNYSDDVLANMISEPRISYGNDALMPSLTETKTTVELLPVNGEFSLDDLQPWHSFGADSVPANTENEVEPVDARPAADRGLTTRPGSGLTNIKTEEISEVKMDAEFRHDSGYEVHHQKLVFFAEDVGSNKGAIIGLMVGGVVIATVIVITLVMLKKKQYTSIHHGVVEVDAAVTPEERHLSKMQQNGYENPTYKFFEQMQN

Acetylcholinesterase = Acetylcholinesterase (Electrophorus electricus, UniProt O42275); assay: Inhibition of electric eel AChE using acetylthiocholine iodide as substrate incubated for 5 mins by Ellman's method
Sequence of Acetylcholinesterase (O42275 whole entry): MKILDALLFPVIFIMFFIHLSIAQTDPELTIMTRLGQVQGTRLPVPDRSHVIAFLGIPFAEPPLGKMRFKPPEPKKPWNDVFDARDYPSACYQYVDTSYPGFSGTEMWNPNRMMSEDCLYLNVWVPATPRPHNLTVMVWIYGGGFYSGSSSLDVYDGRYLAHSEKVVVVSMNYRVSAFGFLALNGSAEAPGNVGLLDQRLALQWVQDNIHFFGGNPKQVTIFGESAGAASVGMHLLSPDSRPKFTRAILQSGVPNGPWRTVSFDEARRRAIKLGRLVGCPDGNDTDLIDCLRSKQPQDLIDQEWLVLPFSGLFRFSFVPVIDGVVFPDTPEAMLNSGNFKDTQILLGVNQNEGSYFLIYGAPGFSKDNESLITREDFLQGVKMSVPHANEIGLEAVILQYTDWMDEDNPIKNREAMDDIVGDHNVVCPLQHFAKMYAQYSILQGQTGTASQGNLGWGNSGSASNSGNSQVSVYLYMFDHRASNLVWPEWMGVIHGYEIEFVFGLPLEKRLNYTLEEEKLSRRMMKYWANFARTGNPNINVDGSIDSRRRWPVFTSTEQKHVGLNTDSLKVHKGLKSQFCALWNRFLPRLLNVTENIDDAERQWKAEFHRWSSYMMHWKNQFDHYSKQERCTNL

[3] = Selectivity ratio of IC50 for equine serum BChE to IC50 for electric eel AChE
[4] = target: Amyloid-beta precursor protein (Homo sapiens) (UniProt P05067); assay: Inhibition of self-mediated amyloid beta (1 to 42) (unknown origin) aggregation at 25 uM after 48 hrs by thioflavin T fluorescence assay relative to control
[5] = target: Acetylcholinesterase (Electrophorus electricus) (UniProt O42275); assay: Ratio of donepezil IC50 to compound IC50 for electric eel AChE using acetylthiocholine iodide as substrate incubated for 5 mins by Ellman's method
Sequence of Acetylcholinesterase (Electrophorus electricus) (O42275 24-633 limits assumed): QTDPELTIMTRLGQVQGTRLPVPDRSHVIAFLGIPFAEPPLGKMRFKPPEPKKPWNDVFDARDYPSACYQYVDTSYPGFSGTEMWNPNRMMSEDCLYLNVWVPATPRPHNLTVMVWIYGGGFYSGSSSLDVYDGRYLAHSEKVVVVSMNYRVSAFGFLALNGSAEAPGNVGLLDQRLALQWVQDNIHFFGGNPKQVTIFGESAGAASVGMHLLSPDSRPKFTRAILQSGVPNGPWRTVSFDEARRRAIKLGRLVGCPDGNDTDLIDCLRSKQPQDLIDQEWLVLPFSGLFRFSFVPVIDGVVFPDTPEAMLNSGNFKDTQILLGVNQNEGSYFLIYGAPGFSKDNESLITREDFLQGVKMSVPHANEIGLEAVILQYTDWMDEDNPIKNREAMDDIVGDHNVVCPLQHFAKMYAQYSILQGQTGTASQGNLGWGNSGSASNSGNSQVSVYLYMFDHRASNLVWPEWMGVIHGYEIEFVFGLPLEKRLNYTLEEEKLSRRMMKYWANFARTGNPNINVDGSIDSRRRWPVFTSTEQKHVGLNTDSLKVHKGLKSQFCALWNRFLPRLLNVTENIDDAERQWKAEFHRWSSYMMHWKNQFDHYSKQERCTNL

Sequence of Cholinesterase (P81908 whole entry): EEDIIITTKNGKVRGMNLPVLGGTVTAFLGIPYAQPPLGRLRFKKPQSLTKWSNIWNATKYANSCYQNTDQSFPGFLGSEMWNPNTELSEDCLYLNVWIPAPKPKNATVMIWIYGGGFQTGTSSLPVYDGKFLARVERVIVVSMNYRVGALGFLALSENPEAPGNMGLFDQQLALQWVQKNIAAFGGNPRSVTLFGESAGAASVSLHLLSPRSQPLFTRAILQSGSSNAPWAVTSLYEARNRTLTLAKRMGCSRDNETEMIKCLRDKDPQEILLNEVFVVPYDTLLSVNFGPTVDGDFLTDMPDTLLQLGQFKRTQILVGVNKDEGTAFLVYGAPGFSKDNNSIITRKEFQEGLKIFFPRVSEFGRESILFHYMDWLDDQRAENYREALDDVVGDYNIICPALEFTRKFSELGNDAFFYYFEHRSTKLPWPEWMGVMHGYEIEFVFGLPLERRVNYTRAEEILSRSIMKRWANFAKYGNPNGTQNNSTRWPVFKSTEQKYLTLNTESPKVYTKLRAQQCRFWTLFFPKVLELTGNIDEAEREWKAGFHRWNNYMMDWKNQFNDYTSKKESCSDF

| SMILES | IC50 (Cholinesterase) [µM] | Activity [1] [equiv] | Ratio [2] | IC50 (Acetylcholinesterase) [µM] | Ratio IC50 [3] | inhibition [4] [%] | Ratio IC50 [5] |
| --- | --- | --- | --- | --- | --- | --- | --- |
| c1ccc(CC2CCN(CCNCc3cccnc3)CC2)cc1 | 0.101 | 1.32 | 1.51 | 0.0328 | 3.07 | 84.4 |  |
| COc1cc(CNCCCCN2CCN(Cc3ccccc3)CC2)cc(OC)c1OC | 0.0327 | 1.24 | 1.71 | 0.138 | 0.23 | 80.4 |  |
| COc1ccc(CNCCCCN2CCC(Cc3ccccc3)CC2)cc1OC | 0.0491 | 1.06 | 1.51 | 0.202 | 0.24 | 80.7 |  |
| COc1ccc(CNCCN2CCN(Cc3ccccc3)CC2)cc1OC | 0.274 | 0.95 | 1.71 | 0.682 | 0.4 | 80.7 |  |
| COc1cc(CNCCCN2CCN(C(c3ccccc3)c3ccccc3)CC2)cc(OC)c1OC |  | 2.47 |  |  |  | 68.2 |  |
| c1ccc(CC2CCN(CCCNCc3cccnc3)CC2)cc1 | 0.0817 | 1.18 | 1.51 | 0.00213 | 38.4 | 88.8 | 22 |
| COc1cc(CNCCN2CCN(Cc3ccccc3)CC2)ccc1O | 0.0183 | 1.28 |  | 0.181 | 0.1 | 71.9 |  |
| COc1cc(CNCCCN2CCN(C(c3ccccc3)c3ccccc3)CC2)ccc1O |  | 2.68 |  |  |  | 54.2 |  |
| COc1cc(CNCCN2CCC(Cc3ccccc3)CC2)ccc1O | 0.0042 | 4.04 | 1.51 | 0.0383 | 0.1 | 84.4 |  |
| c1ccc(CN2CCN(CCNCc3cccnc3)CC2)cc1 | 0.129 | 1.02 |  | 0.14 | 0.92 | 56.8 |  |
| c1ccc(CC2CCN(CCCCNCc3cccnc3)CC2)cc1 | 0.034 | 1.59 | 1.51 | 0.00772 | 4.4 | 78.6 | 6 |
| COc1cc(CNCCCCN2CCC(Cc3ccccc3)CC2)ccc1O | 0.00387 | 4.45 |  | 0.0115 | 0.33 | 71.3 |  |
| COc1cc(CNCCCCN2CCN(Cc3ccccc3)CC2)ccc1O | 0.0139 | 1.64 |  | 0.136 | 0.1 | 72.4 |  |
| COc1cc(CNCCCN2CCN(Cc3ccccc3)CC2)cc(OC)c1OC | 0.0415 | 1.31 | 1.71 | 0.0818 | 0.5 | 79.7 |  |
| COc1cc(CNCCN2CCC(Cc3ccccc3)CC2)cc(OC)c1OC | 0.0534 | 1.38 |  | 0.0358 | 1.48 | 75 |  |
| COc1cc(CNCCCN2CCC(Cc3ccccc3)CC2)cc(OC)c1OC | 0.0231 | 1.41 | 1.51 | 0.00856 | 2.69 | 78.2 |  |

| SMILES | IC50 (Cholinesterase) [µM] | Activity [1] [equiv] | Ratio [2] | IC50 (Acetylcholinesterase) [µM] | Ratio IC50 [3] | inhibition [4] [%] | Ratio IC50 [5] |
| --- | --- | --- | --- | --- | --- | --- | --- |
| COc1ccc(CNCCCN2CCN(C(c3ccccc3)c3ccccc3)CC2)cc1OC |  | 2.21 |  |  |  | 65.6 |  |
| COc1ccc(CNCCN2CCN(C(c3ccccc3)c3ccccc3)CC2)cc1OC |  | 1.77 |  |  |  | 67.6 |  |
| c1ccc(CN2CCN(CCCCNCc3cccnc3)CC2)cc1 | 0.104 | 0.64 |  | 0.134 | 0.78 | 69.3 |  |
| COc1ccc(CNCCN2CCC(Cc3ccccc3)CC2)cc1OC | 0.0777 | 0.61 |  | 0.182 | 0.42 | 54.7 |  |
| COc1cc(CNCCN2CCN(C(c3ccccc3)c3ccccc3)CC2)ccc1O |  | 2.31 |  |  |  | 43.5 |  |
| COc1cc(CNCCCCN2CCC(Cc3ccccc3)CC2)cc(OC)c1OC | 0.0167 | 2.45 | 1.51 | 0.0128 | 1.3 | 85.4 |  |
| COc1cc(CNCCN2CCN(Cc3ccccc3)CC2)cc(OC)c1OC | 0.0751 | 2.77 |  | 0.0965 | 0.77 | 75.5 |  |
| c1ccc(CN2CCN(CCCNCc3cccnc3)CC2)cc1 | 0.209 | 0.65 |  | 0.0231 | 9.03 | 63 |  |
| COc1cc(CNCCCCN2CCN(C(c3ccccc3)c3ccccc3)CC2)cc(OC)c1OC |  | 1.63 |  |  |  | 57.3 |  |
| COc1ccc(CNCCCN2CCC(Cc3ccccc3)CC2)cc1OC | 0.19 | 1.22 | 1.51 | 0.0753 | 2.52 | 84.4 |  |
| COc1cc(CNCCN2CCN(C(c3ccccc3)c3ccccc3)CC2)cc(OC)c1OC |  | 2.38 |  |  |  | 68.7 |  |
| COc1ccc(CNCCCCN2CCN(C(c3ccccc3)c3ccccc3)CC2)cc1OC |  | 1.35 |  |  |  | 57.8 |  |
| COc1cc(CNCCCN2CCC(Cc3ccccc3)CC2)ccc1O | 0.00761 | 3.74 | 1.51 | 0.00683 | 1.11 | 88 | 7 |
| COc1ccc(CNCCCN2CCN(Cc3ccccc3)CC2)cc1OC | 0.331 | 1.4 | 1.71 | 0.112 | 2.94 | 79.7 |  |
| COc1ccc(CNCCCCN2CCN(Cc3ccccc3)CC2)cc1OC | 0.142 | 0.61 |  | 0.163 | 0.86 | 67.7 |  |
| COc1cc(CNCCCN2CCN(Cc3ccccc3)CC2)ccc1O | 0.0188 | 1.99 |  | 0.0135 | 1.38 | 67.2 |  |
